Results reported in PubChem BioAssay AID292 (DTP/NCI, 2004).
Several values for one entry are separate records, joined by “and”; a condition that tells them apart may be missing. Identical values can stand only once. Inconclusive results and toxic doses are left out. How the source made its calls: active means survival T/C of 150% or more; inactive means T/C below 125% in these data.

Test system: B6C3F1 mice, ip Sarcoma M5076, median survival T/C
Assay: NCI In Vivo Anticancer Drug Screen. Data for tumor model Sarcoma M5076 (intraperitoneal) in B6C3F1 mice
Conditions: endpoint: median survival time, schedule: Q04DX004 (ip), higher = longer survival
How it was run: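 Transplantable tumour in mice; compound-treated vs vehicle-treated groups. Read-out: survival. Value = treated/control ratio.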

[1] = dose: 37.5 mg/kg/injection, vehicle: saline with Tween-80
[2] = dose: 75.0 mg/kg/injection, vehicle: saline with Tween-80
[3] = dose: 150.0 mg/kg/injection, vehicle: saline with Tween-80
[4] = dose: 300.0 mg/kg/injection, vehicle: saline with Tween-80
[5] = dose: 600.0 mg/kg/injection, vehicle: saline with Tween-80
[6] = dose: 43.75 mg/kg/injection, vehicle: Klucel (hydroxypropylcellulose) (HPC)
[7] = dose: 87.5 mg/kg/injection, vehicle: Klucel (hydroxypropylcellulose) (HPC)
[8] = dose: 175.0 mg/kg/injection, vehicle: Klucel (hydroxypropylcellulose) (HPC)
[9] = dose: 350.0 mg/kg/injection, vehicle: Klucel (hydroxypropylcellulose) (HPC)

Measured: T/C

O=C(NNC(=S)NC1OC(CO)C(O)C(O)C1O)c1cccc(C(=O)NNC(=S)NC2OC(CO)C(O)C(O)C2O)n1 (stereo not drawn)
inactive: [1] 97 % of control | dose: 37.5 mg/kg/injection, vehicle: saline 101 % of control | [2] 98 % of control | dose: 75.0 mg/kg/injection, vehicle: saline 96 % of control | [3] 98 % of control | dose: 150.0 mg/kg/injection, vehicle: saline 101 % of control | [4] 99 % of control | dose: 300.0 mg/kg/injection, vehicle: saline 96 % of control | [5] 98 % of control | dose: 600.0 mg/kg/injection, vehicle: saline 103 % of control

CCN(CC)CCOC(=O)c1c(C)oc2cc3c(C(=O)OCCN(CC)CC)c(C)oc3cc12
inactive: dose: 25.0 mg/kg/injection, vehicle: Klucel (hydroxypropylcellulose) (HPC) 105 % of control | dose: 50.0 mg/kg/injection, vehicle: Klucel (hydroxypropylcellulose) (HPC) 99 % of control | dose: 100.0 mg/kg/injection, vehicle: Klucel (hydroxypropylcellulose) (HPC) 109 % of control | dose: 200.0 mg/kg/injection, vehicle: Klucel (hydroxypropylcellulose) (HPC) 104 % of control | dose: 400.0 mg/kg/injection, vehicle: Klucel (hydroxypropylcellulose) (HPC) 106 % of control

N=C(N)c1nn(C2OC(CO)C(O)C2O)c2nc[nH]c(=O)c12 (stereo not drawn)
inactive: dose: 6.25 mg/kg/injection, vehicle: Klucel + Tween-80 123 % of control | dose: 12.5 mg/kg/injection, vehicle: Klucel + Tween-80 109 % of control | dose: 18.0 mg/kg/injection, vehicle: other 106 % of control | dose: 22.0 mg/kg/injection, vehicle: Klucel + Tween-80 112 % of control | dose: 30.0 mg/kg/injection, vehicle: other 107 % of control | dose: 36.0 mg/kg/injection, vehicle: Klucel + Tween-80 120 % of control | dose: 50.0 mg/kg/injection, vehicle: other 105 % of control | dose: 60.0 mg/kg/injection, vehicle: Klucel + Tween-80 117 % of control | dose: 83.33 mg/kg/injection, vehicle: other 105 % of control | dose: 101.0 mg/kg/injection, vehicle: Klucel + Tween-80 117 % of control

c1ccc2c(c1)oc1cc3c(cc12)nnc1cccn13
inactive: dose: 22.5 mg/kg/injection, vehicle: Klucel (hydroxypropylcellulose) (HPC) 92 % of control | dose: 45.0 mg/kg/injection, vehicle: Klucel (hydroxypropylcellulose) (HPC) 96 % of control | dose: 90.0 mg/kg/injection, vehicle: Klucel (hydroxypropylcellulose) (HPC) 94 % of control | dose: 180.0 mg/kg/injection, vehicle: Klucel (hydroxypropylcellulose) (HPC) 88 % of control | dose: 360.0 mg/kg/injection, vehicle: Klucel (hydroxypropylcellulose) (HPC) 92 % of control

COc1cc2c(oc(=O)c3cc(C)cc(OC)c32)c2c(C3OC(C)C(O)C(C)(O)C3O)ccc(O)c12 (stereo not drawn)
inactive: dose: 3.12 mg/kg/injection, vehicle: DMSO 106 % of control and 107 % of control | dose: 6.25 mg/kg/injection, vehicle: DMSO 101 % of control and 109 % of control | dose: 12.5 mg/kg/injection, vehicle: DMSO 101 % of control and 107 % of control | dose: 25.0 mg/kg/injection, vehicle: DMSO 109 % of control and 112 % of control | dose: 50.0 mg/kg/injection, vehicle: DMSO 103 % of control and 109 % of control

COc1ccccc1N1C(=O)C(=O)C(C(C)=O)C1=O (stereo not drawn)
inactive: [6] 115 % of control | [7] 98 % of control | [8] 100 % of control | [9] 98 % of control

COc1c(C=O)c2c(c(OC)c1OC)-c1ccc(OC)c(=O)cc1[C@@H](NC(C)=O)CC2
inactive: dose: 3.75 mg/kg/injection, vehicle: Klucel (hydroxypropylcellulose) (HPC) 118 % of control | dose: 7.5 mg/kg/injection, vehicle: Klucel (hydroxypropylcellulose) (HPC) 118 % of control

CC(=O)OCCN1CCOC(O)(c2cccc(C(F)(F)F)c2)C1 (stereo not drawn)
inactive: dose: 11.25 mg/kg/injection, vehicle: saline with Tween-80 97 % of control | dose: 22.5 mg/kg/injection, vehicle: saline with Tween-80 96 % of control | dose: 45.0 mg/kg/injection, vehicle: saline with Tween-80 97 % of control | dose: 90.0 mg/kg/injection, vehicle: saline with Tween-80 100 % of control | dose: 180.0 mg/kg/injection, vehicle: saline with Tween-80 98 % of control

COc1ccc(CCN2C(=O)C(=O)N(c3cccc(Cl)c3)C2=O)cc1OC
inactive: [6] 88 % of control | [7] 91 % of control | [8] 88 % of control | [9] 98 % of control | dose: 700.0 mg/kg/injection, vehicle: Klucel (hydroxypropylcellulose) (HPC) 92 % of control

CCC1OCC(C(Cl)CCl)O1 (stereo not drawn)
inactive: dose: 50.0 mg/kg/injection, vehicle: saline with Tween-80 100 % of control | dose: 100.0 mg/kg/injection, vehicle: saline with Tween-80 97 % of control | dose: 200.0 mg/kg/injection, vehicle: saline with Tween-80 93 % of control

Cc1cc(C(F)(F)F)nc2nc3ccccc3n12
inactive: dose: 37.5 mg/kg/injection, vehicle: Klucel (hydroxypropylcellulose) (HPC) 100 % of control | dose: 75.0 mg/kg/injection, vehicle: Klucel (hydroxypropylcellulose) (HPC) 95 % of control | dose: 150.0 mg/kg/injection, vehicle: Klucel (hydroxypropylcellulose) (HPC) 96 % of control | dose: 300.0 mg/kg/injection, vehicle: Klucel (hydroxypropylcellulose) (HPC) 95 % of control

O=S1(=O)C(c2ccc(F)cc2)=C(O)c2cc3ccccc3nc21
inactive: dose: 17.19 mg/kg/injection, vehicle: sodium bicarbonate 97 % of control | dose: 34.38 mg/kg/injection, vehicle: sodium bicarbonate 93 % of control | dose: 68.75 mg/kg/injection, vehicle: sodium bicarbonate 93 % of control

Cc1[nH]c(=O)[nH]c(=O)c1CCSSCCc1c(C)[nH]c(=O)[nH]c1=O
inactive: [1] 90 % of control | [2] 86 % of control | [3] 89 % of control | [4] 86 % of control | [5] 90 % of control

COc1ccc(N2CCCSC2=S)cc1
inactive: dose: 31.25 mg/kg/injection, vehicle: saline + Tween-80 + alcohol 97 % of control | dose: 62.5 mg/kg/injection, vehicle: saline + Tween-80 + alcohol 91 % of control
